Reference: patent US4642332A, “Effective hormonal peptides: D-3-Pal^6 -LHRH” (The Board of Regents, The University of Texas System, priority 1985, dated 1987)

What was measured:
[1] = system: pituitary cells from 21 day old rats; experiment: In vitro pituitary incubate assay (release of LH and FSH); assay type: cell-based, rat; conditions: for FSH released into medium (ng/ml) ± SEM / LH ng/ml medium ± SEM: Table IV, mean of 9
Protocol: The data in Tables IV and V are from the in vitro assay of the peptides with the pituitary incubate. This assay measures the release of LH and FSH in an in vitro system with pituitary cells from 21 day old rats. See, Bowers, C. Y. et al. on the inhibitory effects of leutinizing hormone releasing hormone analogs. Endocrinology, 106: 674 (1980).
The abbreviations are as follows: sc-subcutaneous, SEM-standard error of the mean; NS-not significant; ng-nanogram, and ml-milliliter. The p value represents the population coefficient .rho.(rho) which signifies whether a sample coefficient is significant or a chance deviation from zero.

21 day old female rats = experiment: In vivo assay in rats for release of LH and FSH; design: species or system rat; conditions: for Serum FSH ng/ml SEM / Serum LH ng/ml SEM: Table IX, blood sample at ±60 minutes; for Serum FSH ng/ml SEM / Serum LH ng/ml SEM / FSH ng/ml Serum ± SEM at +120 min / LH ng/ml Serum ± SEM at +120 min: mean of 6; for FSH ng/ml Serum ± SEM at +120 min / LH ng/ml Serum ± SEM at +120 min: Table X; for +2 hrs LH ± SEM ng/ml serum / FSH ± SEM ng/ml serum (+2 hrs) / +3 hrs LH ± SEM ng/ml serum / FSH ± SEM ng/ml serum (+3 hrs): Table XI, mean 5-6
Protocol: In vivo rat assay performed by a modification of the method of Bowers, C. Y. et al. Endocrinology, 106, 674 (1980). 21 day old female rats were injected sc with saline or peptide. Blood samples for the RIAs of LH and FSH were collected at +15, +60, +120, or +180 minutes. (Tables VI-XI).

[2] = at 0.1 ng, statement on Table IV
[3] = Table VI, 1.75 ng/rat sc, mean of 9
[4] = Table VI, 5 ng/rat sc, mean of 9
[5] = Table VI, 15 ng/rat sc, mean of 9
[6] = Table VI, 50 ng/rat sc, mean of 9
[7] = Table VIII first section (time not given), 15 ng/rat sc, mean of 5-6
[8] = Table VIII first section (time not given), 150 ng/rat sc, mean of 5-6
[9] = Table VIII, ±60 min after injection, 15 ng/rat sc, mean of 5-6
[10] = Table VIII, ±60 min after injection, 150 ng/rat sc, mean of 5-6

CC(C)C[C@H](NC(=O)[C@@H](Cc1cccnc1)NC(=O)[C@H](Cc1ccc(O)cc1)NC(=O)[C@H](CO)NC(=O)[C@H](Cc1c[nH]c2ccccc12)NC(=O)[C@H](Cc1c[nH]cn1)NC(=O)[C@@H]1CCC(=O)N1)C(=O)N[C@@H](CCCNC(=N)N)C(=O)N1CCC[C@H]1C(=O)NCC(N)=O [D-Pal^6 -LHRH, pyroGlu-His-Trp-Ser-Tyr-D-3-Pal-Leu-Arg-Pro-GlyNH2]
FSH released into medium (ng/ml) ± SEM ([1]; dosage 0.03 ng/ml medium): 1062 ± 394
LH ng/ml medium ± SEM ([1]; dosage 0.03 ng/ml medium): 73 ± 10 ng/mL
FSH released into medium (ng/ml) ± SEM ([1]; dosage 0.1 ng/ml medium): 3109 ± 486
LH ng/ml medium ± SEM ([1]; dosage 0.1 ng/ml medium): 345 ± 72 ng/mL
FSH released into medium (ng/ml) ± SEM ([1]; dosage 0.3 ng/ml medium): 5126 ± 967
LH ng/ml medium ± SEM ([1]; dosage 0.3 ng/ml medium): 811 ± 182 ng/mL
FSH released into medium (ng/ml) ± SEM ([1]; dosage 1.0 ng/ml medium): 9637 ± 1490
LH ng/ml medium ± SEM ([1]; dosage 1.0 ng/ml medium): 1439 ± 233 ng/mL
activity for the release of LH, D-Pal^6 -LHRH compared with D-Qal^6 -LHRH [1, 2]: essentially equivalent
release of FSH, D-Pal^6 -LHRH compared with D-Qal^6 -LHRH [1, 2]: same essential equivalents
potency, D-Pal^6 -LHRH compared with D-Trp^6 -LHRH ([1]; inferred from equivalence with D-Qal^6 -LHRH): essentially equipotent
Serum FSH ng/ml SEM (21 day old female rats; 50 ng/rat sc): 3099 ± 361 ng/mL
Serum LH ng/ml SEM (21 day old female rats; 50 ng/rat sc): 120 ± 16 ng/mL
Serum FSH ng/ml SEM (21 day old female rats; 150 ng/rat sc): 3064 ± 677 ng/mL
Serum LH ng/ml SEM (21 day old female rats; 150 ng/rat sc): 122 ± 19 ng/mL
Serum FFSH ng/ml ± SEM (21 day old female rats; [3]): 471 ± 128 ng/mL
Serum LH ng/ml ± SEM (21 day old female rats; [3]): 1.5 ± 0.3 ng/mL
Serum FFSH ng/ml ± SEM (21 day old female rats; [4]): 738 ± 71 ng/mL
Serum LH ng/ml ± SEM (21 day old female rats; [4]): 7 ± 1 ng/mL
Serum FFSH ng/ml ± SEM (21 day old female rats; [5]): 1270 ± 140 ng/mL
Serum LH ng/ml ± SEM (21 day old female rats; [5]): 43 ± 7 ng/mL
Serum FFSH ng/ml ± SEM (21 day old female rats; [6]): 2267 ± 342 ng/mL
Serum LH ng/ml ± SEM (21 day old female rats; [6]): 103 ± 8 ng/mL
Serum FSH ng/ml ± SEM (21 day old female rats; [7]): 1711 ± 644 ng/mL
Serum LH ng/ml ± SEM (21 day old female rats; [7]): 36 ± 9 ng/mL
Serum FSH ng/ml ± SEM (21 day old female rats; [8]): 1591 ± 588 ng/mL
Serum LH ng/ml ± SEM (21 day old female rats; [8]): 111 ± 16 ng/mL
Serum FSH ng/ml ± SEM (21 day old female rats; [9]): 1992 ± 379 ng/mL
Serum LH ng/ml ± SEM (21 day old female rats; [9]): 81.0 ± 17 ng/mL
Serum FSH ng/ml ± SEM (21 day old female rats; [10]): 6432 ± 2216 ng/mL
Serum LH ng/ml ± SEM (21 day old female rats; [10]): 106.0 ± 3 ng/mL
FSH ng/ml Serum ± SEM at +120 min (21 day old female rats; 50 ng/rat sc): 3251 ± 485 ng/mL
LH ng/ml Serum ± SEM at +120 min (21 day old female rats; 50 ng/rat sc): 111 ± 26 ng/mL
FSH ng/ml Serum ± SEM at +120 min (21 day old female rats; 150 ng/rat sc): 5293 ± 686 ng/mL
LH ng/ml Serum ± SEM at +120 min (21 day old female rats; 150 ng/rat sc): 216 ± 46 ng/mL
+2 hrs LH ± SEM ng/ml serum (21 day old female rats; 50 ng sc): 108 ± 17 ng/mL
FSH ± SEM ng/ml serum (+2 hrs) (21 day old female rats; 50 ng sc): 1727 ± 222 ng/mL
+3 hrs LH ± SEM ng/ml serum (21 day old female rats; 50 ng sc): 20 ± 2.3 ng/mL
FSH ± SEM ng/ml serum (+3 hrs) (21 day old female rats; 50 ng sc): 1312 ± 163 ng/mL
+2 hrs LH ± SEM ng/ml serum (21 day old female rats; 150 ng sc): 144 ± 27 ng/mL
FSH ± SEM ng/ml serum (+2 hrs) (21 day old female rats; 150 ng sc): 2362 ± 293 ng/mL
+3 hrs LH ± SEM ng/ml serum (21 day old female rats; 150 ng sc): 38 ± 6.3 ng/mL
FSH ± SEM ng/ml serum (+3 hrs) (21 day old female rats; 150 ng sc): 1617 ± 143 ng/mL
release of LH (in words) (21 day old female rats; dosage of 5 ng): significantly released LH
FSH released (21 day old female rats; dosage of 15 ng): 1270 ± 140 ng
LH released relative to LHRH (21 day old female rats; dosage of 50 ng, corrected for the level of LH before addition of the peptides): ~50 times
potency compared with LHRH when tested biologically (21 day old female rats; summary statement, test not specified): significantly more potent than LHRH itself

CCNC(=O)[C@@H]1CCCN1C(=O)[C@H](CCCNC(=N)N)NC(=O)[C@H](CC(C)C)NC(=O)[C@@H](Cc1c[nH]c2ccccc12)NC(=O)[C@H](Cc1ccc(O)cc1)NC(=O)[C@H](CO)NC(=O)[C@H](Cc1c[nH]c2ccccc12)NC(=O)[C@H](Cc1c[nH]cn1)NC(=O)[C@@H]1CCC(=O)N1 [D-Trp^6 Pro^9 Net--LHRH, pyroGlu--His--Trp--Ser--Tyr-- D-Trp--Leu--Arg--Pro--EA**]
LH ng/ml Serum ± SEM ± 15 min (21 day old female rats; Table VII, dosage 100 mg/rat sc (so in the source), ± 15 min): 59 ± 10 ng/mL
LH ng/ml Serum ± SEM ± 60 min (21 day old female rats; Table VII, dosage 100 mg/rat sc (so in the source), ± 60 min): 228 ± 41 ng/mL
+2 hrs LH ± SEM ng/ml serum (21 day old female rats; 150 ng sc): 184 ± 29 ng/mL
FSH ± SEM ng/ml serum (+2 hrs) (21 day old female rats; 150 ng sc): 2260 ± 294 ng/mL
+3 hrs LH ± SEM ng/ml serum (21 day old female rats; 150 ng sc): 103 ± 9 ng/mL
